# Source: patent US9884832B2 (priority 2011, dated 2018)
# Target: AM2 S31 (wild-type serine at position 31 in the M2 protein), influenza virus A/Udorn/72 (Influenza A virus, UniProt P0DOF5)
# Assay: cell-based
# Conditions: 100 uM; Xenopus oocytes; activity range class; read-out: S31 OOcyte Inhibition at 100 uM (%)
# AM2 S31 (wild-type serine at position 31 in the M2 protein), influenza virus A/Udorn/72, sequence (P0DOF5 whole entry, looked up): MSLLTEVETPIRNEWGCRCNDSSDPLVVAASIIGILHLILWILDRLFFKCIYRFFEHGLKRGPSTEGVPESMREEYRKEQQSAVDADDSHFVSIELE
row,SMILES,inhibition at 100 µM
1,"Brc1ncc(CNC23CC4CC(CC(C4)C2)C3)cn1 [Example 57a, N-((2-bromopyrimidin-5-yl)methyl)adamantan-1-amine]",0 to 30%
2,"c1cc(C2CC2)sc1CNC12CC3CC(CC(C3)C1)C2 [Example 108a, N-((5-cyclopropylthiophen-2-yl)methyl)adamantan-1-amine]",0 to 30%
3,"c1cc(CNC23CC4CC(CC(C4)C2)C3)cc(-c2cccs2)c1 [Example 34a, N-(3-(thiophen-2-yl)benzyl)adamantan-1-amine]",0 to 30%
4,"Oc1c(CNC23CC4CC(CC(C4)C2)C3)ccc2ccccc12 [Example 53a, 2-(Adamantan-1-ylaminomethyl)-naphthalen-1-ol]",31 to 95%
5,"Brc1ccc(CNC23CC4CC(CC(C4)C2)C3)nc1 [Example 54a, Adamantan-1-yl-(5-bromo-pyridin-2-ylmethyl)-amine]",31 to 95%
6,"c1csc(-c2cc(CNC34CC5CC(CC(C5)C3)C4)on2)c1 [Example 149a, N-((3-(thiophen-2-yl)isoxazol-5-yl)methyl)adamantan-1-amine]",0 to 30%
7,c1ccc(-c2cc(CNC34CC5CC(CC(C5)C3)C4)on2)cc1 [Example 164a],0 to 30%
8,"c1coc(-c2ncc(CNC34CC5CC(CC(C5)C3)C4)cn2)c1 [Example 62a, N-((2-(furan-2-yl)pyrimidin-5-yl)methyl)adamantan-1-amine]",0 to 30%
9,"OC12CC3CC(C1)CC(NCc1ccc(Br)s1)(C3)C2 [Example 188a, 3-[(5-Bromo-thiophen-2-ylmethyl)-amino]adamantan-1-ol]",0 to 30%
10,"Cc1nc(CNC23CC4CC(CC(C4)C2)C3)c[nH]1 [Example 99a, N-((2-methyl-1H-imidazol-4-yl)methyl)adamantan-1-amine]",0 to 30%

# Same assay, conditions: 100 uM; Xenopus oocytes; numeric value; read-out: S31 OOcyte Inhibition at 100 uM (%)
row,SMILES,inhibition at 100 µM
1,"c1cn(-c2ccc(CNC34CC5CC(CC(C5)C3)C4)cc2)cn1 [Example 36a, N-(4-(1H-imidazol-1-yl)benzyl)adamantan-1-amine]",16.1%

# Same assay, conditions: Table 1; 100 uM; Xenopus oocytes, pH 5.5, -20 mV; read-out: S31 OOcyte Inhibition at 100 uM (%)
row,SMILES,inhibition at 100 µM
1,"Oc1ccc(CNC23CC4CC(CC(C4)C2)C3)cc1 [Example 9, 4-(Adamantan-1-ylaminomethyl)-phenol]",31 to 95%
2,"CSc1ccc(CNC23CC4CC(CC(C4)C2)C3)c(SC)c1 [Example 55, Adamantan-1-yl-(2,4-bis-methylsulfanyl-benzyl)-amine]",0 to 30%
3,"CN(CCC#N)c1ccc(CNC23CC4CC(CC(C4)C2)C3)cc1 [Example 38, 3-((4-((Adamantan-1-ylamino)methyl)phenyl)(methyl)amino)propanenitrile]",0 to 30%
4,"c1c(CNC2C3CC4CC(C3)CC2C4)nc2n1CCS2 (stereo not drawn) [Example 105, Adamantan-2-yl-(2,3-dihydro-imidazo[2,1-b]thiazol-6-ylmethyl)-amine]",31 to 95%
5,"COc1cc(O)ccc1CNC12CC3CC(CC(C3)C1)C2 [Example 56, 4-(Adamantan-1-ylaminomethyl)-3-methoxy-phenol]",0 to 30%
6,"c1c(CNC23CC4CC(CC(C4)C2)C3)sc2c1CSC2 [Example 84, Adamantan-1-yl-(4,6-dihydro-thieno[3,4-b]thiophen-2-ylmethyl)-amine]",31 to 95%
7,"c1cc2cc(CNC34CC5CC(CC(C5)C3)C4)sc2s1 [Example 79, Adamantan-1-yl-thieno[2,3-b]thiophen-2-ylmethyl-amine]",31 to 95%

# Same assay, conditions: Table 3; 100 uM; Xenopus oocytes, pH 5.5, -20 mV; read-out: S31 OOcyte Inhibition at 100 uM (%)
row,SMILES,inhibition at 100 µM
1,"CSc1ccccc1-c1ccc(CNC23CC4CC(CC(C4)C2)C3)nc1 [Example 67b, Adamantan-1-yl-[5-(2-methylsulfanyl-phenyl)-pyridin-2-ylmethyl]-amine]",31 to 95%
2,"C1COC(c2nc(CNC34CC5CC(CC(C5)C3)C4)no2)C1 (stereo not drawn) [Example 21b, N-((5-(tetrahydrofuran-2-yl)-1,2,4-oxadiazol-3-yl)methyl)adamantan-1-amine]",0 to 30%
3,Oc1cc(F)ccc1CNC12CC3CC(CC(C3)C1)C2 [Example 6b],31 to 95%
